Experimental data from patent US11325937B2, “Glycoside compound and preparation method therefor, composition, application, and intermediate” (SHANGHAI HUTCHISON PHARMACEUTICALS LIMITED, priority 2018, dated 2022).

Columns and labels:
VEGF-A mRNA = assay: Sponge implanted animal model of inflammatory angiogenesis: VEGF-A mRNA expression; assay type: in vivo, male C57/BL6 mice; settings: 2 weeks; for activity in promoting VEGF-A mRNA expression compared with Salvianolate (in words): positive control Salvianolate 60 mg/kg/d, sponge implanted mice
From the text: The target pro-angiogenic compounds TG-052, TG-053, TG-054, TG-028, and TG-055 obtained in Effect Example 1 that perform well at the cellular level were further screened for the active molecules that promote VEGF-A mRNA expression in the “sponge implanted animal model” of inflammatory angiogenesis. […] This model can well reflect the expression of VEGF-A mRNA in macrophages recruited around inflammation.
A sponge implanted mouse model was established following the method as described in Zhang J, Modi Y, and Yarovinsky T, et al. Macrophage β2 integrin-mediated, HuR-dependent stabilization of angiogenic factor-encoding mRNAs in inflammatory angiogenesis. [J]. American Journal of Pathology, 2012. 180(4): 1751-1760. The mice used in the present invention was male C57/BL6 mice aged 6-8 weeks and weighing 20-25 g, purchased from Shanghai SLAC Laboratory Animal Co., Ltd, Production License No: SCXK (Shanghai) 2013-0016. The compound screened in Effect Example 1 was weighed according to the amount intended to be used in two weeks, and then mixed with a gel matrix and a solvent to prepare a sustained-release gel of the compound (see Patent Application No.: CN201610168493.9 for the details of the preparation method of the sustained-release gel and the model establishment and detection methods). The specific steps were as follows. A certain amount of the compound obtained in Effect Example 1 was weighed into a 1.5 mL EP tube, and then a certain amount of poly-L-lactic acid (PLLA) with a weight average molecular weight of less than 10,000 was weighed and mixed with the compound (at a weight ratio of the compound to PLLA of 0.5:1 to 2:1). Finally a certain amount of DMSO (less than 100 microliters) was added, spun, mixed well, and then sealed with a sealing film. After continuous ultrasonication at 200 W and 25° C. for 5 h, a sustained-release gel of the compound was obtained, which was stored at 4° C. for later use.
The prepared sustained-release gel can release the drug completely within 2 weeks. The sustained-release gel and sponge were both subcutaneously implanted in the mice at the back. After 2 weeks, the sponge was taken out, and the residual tissue and fur were removed. The sponge was transferred to a cell culture plate containing 10 mL of DMEM medium containing collagenase (Collagenase:DMEM=10 mg/10 mL), cut, and incubated for 1 h in a cell incubator. Then the culture medium containing sponge debris was filtered, and the resulting filtrate was centrifuged. The supernatant was discarded, and 500 μL of Trizol reagent was added to the pellet, and mixed uniformly by blowing. Then the liquid was transferred to a 1.5 mL EP tube, and stored at −80° C. RNA was extracted according to a conventional method, and the RNA concentration was determined using a microvolume nucleic acid and protein analyzer (Nanodrop2000c). The required volume V of RNA was calculated according to the RNA concentration, and the RNA reverse transcription reaction system was prepared according to Table 1. Then RNA reverse transcription (cDNA synthesis) was carried out according to the conditions described in Table 2. The resulting cDNA was used to prepare a fluorescence quantitative qPCR reaction solution according to Table 3. The fluorescence quantitative qPCR reaction conditions were set according to Table 4, and the fluorescence quantitative PCR reaction was performed using cDNA from the reverse transcription reaction as a template. The relative expression level 2^−ΔΔCt of the target gene was calculated from the Ct value of each sample with the blank group as a control and β-Actin as an internal reference. The expression level of VEGF-A mRNA in the cells extracted from the sponge was observed after 2 weeks. […]

[1] = tested on: rats with middle cerebral artery occlusion (MCAO); assay: Acute cerebral infarction model in rats with middle cerebral artery occlusion (MCAO); assay type: in vivo, male SD rats; settings: for ED50: Rattus norvegicus, ip, 72 h, intraperitoneal injection, TTC staining after 3 days, read-out: ED50 for infarction inhibition rate (%); for Longa nerve scoring, protective effect on nerves (in words): FIG. 5
Outline: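 Male SD rats (280-320 g) with thread-occlusion MCAO; compound given i.p. 2 h pre-surgery and every 24 h after, 5 rats/group. At day 3, TTC-stained brain sections gave infarction rate and inhibition rate vs model, with ED50 from dose-response; body weight, Longa neuro score, brain water content and Evans Blue BBB permeability also assessed.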

Structure (SMILES)	increase of expression level of VEGF-A mRNA compared with blank control without drugs (VEGF-A mRNA; 19.48 mg/kg/d, sustained-release gel, mice)	activity in promoting VEGF-A mRNA expression compared with Salvianolate (in words) (VEGF-A mRNA)	ED50 ([1]; MCAO) [mg/kg]	Longa nerve scoring, protective effect on nerves (in words) ([1]; three days after MCAO)	VEGF-A mRNA expression level relative to blank control without drugs (VEGF-A mRNA; 11.74 mg/kg/d, sustained-release gel, mice)	VEGF-A mRNA expression level relative to blank control without drugs (VEGF-A mRNA; 23.48 mg/kg/d, sustained-release gel, mice)	effect on inhibiting cerebral infarction (in words) ([1]; MCAO, compared with the control drugs)	water content in brain, effect on reducing cerebral edema (in words) ([1]; TG-028 5 mg/Kg, three days after MCAO, FIG. 6A)	integrity of blood-brain barrier, Evans Blue (in words) ([1]; TG-028 5 mg/Kg, three days after MCAO, FIG. 6B)	rate of body weight change, protection (in words) ([1]; three days after brain injury, FIG. 3)
OC[C@H]1O[C@@H](OCCc2ccccc2)[C@H](O)[C@@H](O)[C@@H]1O [TG-055]	about 3 times	comparable to that of Salvianolate	65.3	equivalent to that of Edaravone, Clopidogrel bisulfate, and Salvianolate	–	–	–	–	–	–
COc1ccc(CCCCO[C@@H]2O[C@H](CO)[C@@H](O)[C@H](O)[C@H]2O)cc1 [TG-028]	–	significantly higher than that of Salvianolate	2.61	equivalent to that of Edaravone, Clopidogrel bisulfate, and Salvianolate	more than 6 times	more than 6 times	most potent effect on inhibiting cerebral infarction in rats	better effect on reducing cerebral edema after acute brain injury of MCAO in rats than Edaravone, Clopidogrel bisulfate, and Salvianolate	better protective effect on blood-brain barrier after acute brain injury of MCAO in rats than Edaravone and Salvianolate	significant protection for rats in terms of the body weight after brain injury
